For 21 molecules, T/C results are on record in PubChem BioAssay AID264 (DTP/NCI, 2004).

The test deals with nude mice, LX-1 lung xenograft intrarenal, tumor weight T/C. Nature of the test: NCI In Vivo Anticancer Drug Screen. Data for tumor model Human Lung LX-1 Xenograft (intrarenal inoculation) in NU/NU Swiss (nude) mice. As to conditions: endpoint: mean tumor weight change, higher = larger tumour. In a few lines:
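Tumor-bearing mice receive test compound or vehicle; tumor size is then measured in each group. The treated value is divided by the vehicle value to give T/C.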

Setting [1] is: dose: 50.0 mg/kg/injection, schedule: Q01DX010 (sc), vehicle: saline with Tween-80.
Where [2] appears, read: dose: 300.0 mg/kg/injection, schedule: Q04DX003 (sc), vehicle: Klucel (hydroxypropylcellulose) (HPC).
[3] abbreviates: dose: 600.0 mg/kg/injection, schedule: Q04DX003 (sc), vehicle: Klucel (hydroxypropylcellulose) (HPC).
[4] abbreviates: dose: 1200.0 mg/kg/injection, schedule: Q04DX003 (sc), vehicle: Klucel (hydroxypropylcellulose) (HPC).
[5] abbreviates: dose: 200.0 mg/kg/injection, schedule: Q04DX003 (sc), vehicle: saline with Tween-80.
[6] abbreviates: dose: 300.0 mg/kg/injection, schedule: Q04DX003 (sc), vehicle: saline.

“And” between values parts separate entries of the source, which are not always exact repeats. Identical values can stand only once. Results filed as inconclusive are left out.

In the case of `OCC1OC(n2cnc3c2NC=NC[C@H]3O)CC1O` (stereo not given in full), the T/C (dose: 1.0 mg/kg/injection, schedule: Q01DX010 (sc), vehicle: water) was 122 % of control; the T/C (dose: 2.0 mg/kg/injection, schedule: Q01DX010 (sc), vehicle: water) is 68 % of control and 70 % of control and 91 % of control.
Turning to `CCC1CN2C(=N1)c1ccccc1-c1cc(Cl)ccc12` (stereo not given), the T/C is, setting by setting: (dose: 12.5 mg/kg/injection, schedule: Q01DX010 (sc), vehicle: saline with Tween-80) 54 % of control; (dose: 25.0 mg/kg/injection, schedule: Q01DX010 (sc), vehicle: saline with Tween-80) 60 % of control; under setting [1], 107 % of control.
Turning to `N=C(N)SCc1c2ccccc2c(CSC(=N)N)c2ccccc12`, the T/C is 104 % of control (dose: 100.0 mg/kg/injection, schedule: Q04DX003 (sc), vehicle: suspension in saline); 93 % of control (dose: 400.0 mg/kg/injection, schedule: Q04DX003 (sc), vehicle: suspension in saline); 96 % of control (dose: 800.0 mg/kg/injection, schedule: Q04DX003 (sc), vehicle: suspension in saline).
Regarding `CC12CC(C(=O)O)C3(O)CC(C)(C1)CC(C)(C2)C3` (stereo not given) (tested in a mixture with another compound), the T/C is, setting by setting: under setting [2], 86 % of control; under setting [3], 57 % of control; under setting [4], 105 % of control; (dose: 2400.0 mg/kg/injection, schedule: Q04DX003 (sc), vehicle: Klucel (hydroxypropylcellulose) (HPC)) 105 % of control.
`CCCCCC(O)C1C(=O)OC(C)C(O)/C=C/C=C/C=C/C=C\C=C(\C)C(O)CC(O)CC(O)CC(O)CC(O)CC(O)CC1O` (stereo not given): the T/C is 107 % of control (dose: 150.0 mg/kg/injection, schedule: Q04DX003 (sc), vehicle: distilled water + alcohol); 117 % of control (dose: 300.0 mg/kg/injection, schedule: Q04DX003 (sc), vehicle: distilled water + alcohol); 98 % of control (dose: 600.0 mg/kg/injection, schedule: Q04DX003 (sc), vehicle: distilled water + alcohol); 105 % of control (dose: 1200.0 mg/kg/injection, schedule: Q04DX003 (sc), vehicle: distilled water + alcohol).
With `CC(=O)OCC1OC(n2ccc(N)nc2=O)C(OC(C)=O)C1OC(C)=O` (stereo not given), the T/C by setting is: (dose: 300.0 mg/kg/injection, schedule: Q04DX003 (sc), vehicle: suspension in saline) 156 % of control; (dose: 600.0 mg/kg/injection, schedule: Q04DX003 (sc), vehicle: suspension in saline) 84 % of control; (dose: 1200.0 mg/kg/injection, schedule: Q04DX003 (sc), vehicle: suspension in saline) 23 % of control; (dose: 2400.0 mg/kg/injection, schedule: Q04DX003 (sc), vehicle: suspension in saline) 94 % of control.
Regarding `Cc1c2ccc3ccccc3c2c[n+]2ccccc12`, the T/C runs as follows: (dose: 4.69 mg/kg/injection, schedule: Q04DX003 (sc), vehicle: Klucel (hydroxypropylcellulose) (HPC)) 110 % of control; (dose: 9.38 mg/kg/injection, schedule: Q04DX003 (sc), vehicle: Klucel (hydroxypropylcellulose) (HPC)) 87 % of control; (dose: 18.75 mg/kg/injection, schedule: Q04DX003 (sc), vehicle: Klucel (hydroxypropylcellulose) (HPC)) 72 % of control.
Consider `NC(=S)c1cn(C2OC(CO)C(O)C2O)c2ncnc(N)c12` (stereo not given), for which the T/C reads like this: (dose: 6.25 mg/kg/injection, schedule: Q04DX003 (sc), vehicle: suspension in saline) 58 % of control; (dose: 12.5 mg/kg/injection, schedule: Q04DX003 (sc), vehicle: suspension in saline) 43 % of control.
`O=c1[nH]c(=O)n(C2CC(O)C(CO)O2)cc1I` (stereo not given): under setting [1], the T/C is 71 % of control.
As for `O=C(O)CSc1c(Cl)c(=O)oc2ccc(Cl)cc12`, the T/C is 52 % of control (dose: 150.0 mg/kg/injection, schedule: Q04DX003 (sc), vehicle: Klucel (hydroxypropylcellulose) (HPC)); 70 % of control under setting [2]; 82 % of control under setting [3]; 165 % of control under setting [4].
As to `NC(=S)N/N=C/c1ccc(O)cn1`, the T/C (dose: 50.0 mg/kg/injection, schedule: Q04DX003 (sc), vehicle: saline with Tween-80) is 102 % of control; the T/C (dose: 100.0 mg/kg/injection, schedule: Q04DX003 (sc), vehicle: saline with Tween-80) is 94 % of control; the T/C under setting [5] is 96 % of control; the T/C (dose: 400.0 mg/kg/injection, schedule: Q04DX003 (sc), vehicle: saline with Tween-80) is 64 % of control.
Take `OC(CBr)C(O)C(O)C(O)CBr` (stereo not given): the T/C (dose: 15.0 mg/kg/injection, schedule: Q01DX010 (sc), vehicle: Klucel (hydroxypropylcellulose) (HPC)) is 112 % of control; the T/C (dose: 60.0 mg/kg/injection, schedule: Q01DX010 (sc), vehicle: Klucel (hydroxypropylcellulose) (HPC)) is 57 % of control; the T/C (dose: 200.0 mg/kg/injection, schedule: Q01DX010 (sc), vehicle: Klucel (hydroxypropylcellulose) (HPC)) was 89 % of control; the T/C (dose: 400.0 mg/kg/injection, schedule: Q01DX010 (sc), vehicle: Klucel (hydroxypropylcellulose) (HPC)) is 96 % of control; the T/C (dose: 800.0 mg/kg/injection, schedule: Q01DX010 (sc), vehicle: Klucel (hydroxypropylcellulose) (HPC)) is 115 % of control.
For `Cn1cnc([N+](=O)[O-])c1S(=O)(=O)NCN1CCOCC1`, the T/C (dose: 25.0 mg/kg/injection, schedule: Q01DX010 (sc), vehicle: Klucel (hydroxypropylcellulose) (HPC)) is 34 % of control; the T/C (dose: 50.0 mg/kg/injection, schedule: Q01DX010 (sc), vehicle: Klucel (hydroxypropylcellulose) (HPC)) was 67 % of control; the T/C (dose: 100.0 mg/kg/injection, schedule: Q01DX010 (sc), vehicle: Klucel (hydroxypropylcellulose) (HPC)) was 43 % of control.
As for `CO[C@@]12[C@H](COC(N)=O)C3=C(C(=O)C(C)=C(N)C3=O)N1C[C@@H]1N[C@@H]12`, the T/C is, setting by setting: (dose: 0.63 mg/kg/injection, schedule: Q04DX003 (sc), vehicle: saline) 98 % of control; (dose: 1.25 mg/kg/injection, schedule: Q04DX003 (sc), vehicle: saline) 32 % of control and 40 % of control and 42 % of control; (dose: 1.5 mg/kg/injection, schedule: Q04DX003 (sc), vehicle: saline) 42 % of control; (dose: 3.0 mg/kg/injection, schedule: Q04DX003 (sc), vehicle: saline) 14 % of control and 16 % of control (2×); (dose: 3.0 mg/kg/injection, schedule: Q04DX003 (sc), vehicle: suspension in saline) 3 % of control; (dose: 6.0 mg/kg/injection, schedule: Q04DX003 (sc), vehicle: suspension in saline) -55 % of control. For the same molecule, the T/C (dose: 12.0 mg/kg/injection, schedule: Q04DX003 (sc), vehicle: saline) was -76 % of control.
On to `COC(=O)C(N)Cc1ccc(O)c(O)c1` (stereo not given), for which the T/C reads like this: under setting [6], 118 % of control; (dose: 600.0 mg/kg/injection, schedule: Q04DX003 (sc), vehicle: saline) 108 % of control; (dose: 1200.0 mg/kg/injection, schedule: Q04DX003 (sc), vehicle: saline) 106 % of control; (dose: 2400.0 mg/kg/injection, schedule: Q04DX003 (sc), vehicle: saline) 108 % of control.
Consider `CC1CC(C)CC(C)C(O)/C(C#N)=C/C=C/CC(C2CCCC2C(=O)O)OC(=O)CC(O)C(C)C1` (stereo not given), for which the T/C (dose: 6.0 mg/kg/injection, schedule: Q04DX003 (sc), vehicle: Klucel (hydroxypropylcellulose) (HPC)) was 117 % of control; the T/C (dose: 12.0 mg/kg/injection, schedule: Q04DX003 (sc), vehicle: Klucel (hydroxypropylcellulose) (HPC)) is 58 % of control; the T/C (dose: 24.0 mg/kg/injection, schedule: Q04DX003 (sc), vehicle: Klucel (hydroxypropylcellulose) (HPC)) is 48 % of control.
On to `CC(=O)O[C@@H]1CO[C@H]2O[C@H]3[C@@H](C(C=O)=C[C@H](O)[C@@H]4C5=C(C(C)C)CC[C@]5(C)CC[C@@]34C)[C@@]2(O)C1=O`, for which the T/C is 94 % of control (dose: 100.0 mg/kg/injection, schedule: Q04DX003 (sc), vehicle: Klucel (hydroxypropylcellulose) (HPC)) and 54 % of control (dose: 400.0 mg/kg/injection, schedule: Q04DX003 (sc), vehicle: Klucel (hydroxypropylcellulose) (HPC)).
Take `CC12CCC3C(CCC4CC(OC(=O)Cc5ccc(N(CCCl)CCCl)cc5)CCC43C)C1CCC(=O)N2` (stereo not given): the T/C was 43 % of control and 66 % of control (dose: 25.0 mg/kg/injection, schedule: Q04DX003 (sc), vehicle: saline with Tween-80); 8 % of control and 9 % of control under setting [5].
For the molecule `COc1cc2c(cc1O)N=C[C@@H]1CCC(O)N1C2=O` (mixture of isomers), the T/C (dose: 4.0 mg/kg/injection, schedule: Q01DX010 (sc), vehicle: saline) is 213 % of control.
Regarding `F[B-](F)(F)F`, the T/C by setting is: (dose: 300.0 mg/kg/injection, schedule: Q04DX003 (sc), vehicle: gum acacia) 103 % of control; (dose: 600.0 mg/kg/injection, schedule: Q04DX003 (sc), vehicle: gum acacia) 101 % of control; (dose: 1200.0 mg/kg/injection, schedule: Q04DX003 (sc), vehicle: gum acacia) 84 % of control.
For the molecule `CONc1ccn(C2OC(CO)C(O)C2O)c(=O)n1` (stereo not given), under setting [6], the T/C was 62 % of control.
